Measurements published in patent publication US8614201B2 (Janssen Pharmaceutica NV, priority 2009, dated 2013).

What follows are molecules tested against Human TRPA1 (Homo sapiens, UniProt O75762) (assay: Alternative TRPA1 Ca2+ fluorometry assay (hTRPA1/TREx-HEK293 cells, Fluo-4, FDSS 6000)). Settings: Fluo-4-AM, agonist 6,11-dihydro-5H-dibenzo[b,e]azepine-10-carboxylic acid methyl ester 25 nM, procedure used for Examples 184, 190 to 192, 194 to 316.
Human TRPA1, sequence (O75762 whole entry): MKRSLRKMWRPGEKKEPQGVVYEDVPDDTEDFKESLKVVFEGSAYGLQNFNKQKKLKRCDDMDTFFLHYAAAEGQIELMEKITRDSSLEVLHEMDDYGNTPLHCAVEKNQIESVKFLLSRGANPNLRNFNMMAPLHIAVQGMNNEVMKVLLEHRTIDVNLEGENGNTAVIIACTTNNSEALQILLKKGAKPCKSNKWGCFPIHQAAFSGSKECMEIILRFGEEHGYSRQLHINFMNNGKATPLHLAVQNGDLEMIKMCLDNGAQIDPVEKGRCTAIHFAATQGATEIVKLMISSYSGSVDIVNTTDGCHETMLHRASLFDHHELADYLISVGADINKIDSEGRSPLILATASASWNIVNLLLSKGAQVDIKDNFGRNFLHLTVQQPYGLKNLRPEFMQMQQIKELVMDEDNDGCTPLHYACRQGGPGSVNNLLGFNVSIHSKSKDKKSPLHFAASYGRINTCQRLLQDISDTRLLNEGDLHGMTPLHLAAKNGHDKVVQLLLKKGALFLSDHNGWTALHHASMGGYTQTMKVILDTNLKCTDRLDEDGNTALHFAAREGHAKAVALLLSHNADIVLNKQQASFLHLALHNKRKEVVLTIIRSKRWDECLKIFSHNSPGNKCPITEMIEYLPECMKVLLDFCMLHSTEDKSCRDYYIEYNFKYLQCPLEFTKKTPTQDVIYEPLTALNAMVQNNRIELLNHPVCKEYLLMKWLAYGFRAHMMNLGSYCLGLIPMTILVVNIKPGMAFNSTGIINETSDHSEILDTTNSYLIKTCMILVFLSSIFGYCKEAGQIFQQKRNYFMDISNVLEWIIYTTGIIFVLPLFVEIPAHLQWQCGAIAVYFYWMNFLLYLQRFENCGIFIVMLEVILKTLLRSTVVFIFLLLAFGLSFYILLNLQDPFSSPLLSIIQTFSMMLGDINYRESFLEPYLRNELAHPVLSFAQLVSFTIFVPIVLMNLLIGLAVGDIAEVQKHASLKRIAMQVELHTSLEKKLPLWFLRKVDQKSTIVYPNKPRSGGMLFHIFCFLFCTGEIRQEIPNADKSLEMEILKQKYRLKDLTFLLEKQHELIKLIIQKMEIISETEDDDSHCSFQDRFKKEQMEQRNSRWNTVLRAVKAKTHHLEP
Format: cell-based
Set-up: expressed in transfected cells
Outline: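 Tetracycline-induced (50 ng/ml, 24 h) hTRPA1/TREx-HEK293 cells were loaded with Fluo-4-AM and probenecid. Compound (1% DMSO final) was added after a 12 s baseline and the Ca2+ signal followed for 14 min, then 25 nM TRPA1 agonist dibenzazepine carboxylic acid methyl ester was applied. Signal is Em540 (ex 488 nm) relative to the first baseline reading.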
`O=C(NCc1cc(-c2ccc(C(F)(F)F)cc2)nc(N2CCN(c3ccccc3F)CC2)n1)[C@@H]1CCCN1S(=O)(=O)c1cccc(Cl)c1F` [Example 273, 1-(3-Chloro-2-fluoro-benzenesulfonyl)-pyrrolidine-2S-carboxylic acid [2-[4-(2-fluoro-phenyl)-piperazin-1-yl]-6-(4-trifluoromethyl-phenyl)-pyrimidin-4-ylmethyl]-amide] was tested, and the IC50 was > 10 µM. In the case of `CC(=O)c1ccc(S(=O)(=O)N2CCC[C@H]2C(=O)NCc2cc(-c3ccc(C(F)(F)F)cc3)nc(N3CCN(c4ccccc4F)CC3)n2)cc1` [Example 274, 1-(4-Acetyl-benzenesulfonyl)-pyrrolidine-2S-carboxylic acid [2-[4-(2-fluoro-phenyl)-piperazin-1-yl]-6-(4-trifluoromethyl-phenyl)-pyrimidin-4-ylmethyl]-amide], the IC50 is reported as > 10 µM. In the case of `Cc1cc(C)c(S(=O)(=O)N2CCC[C@H]2C(=O)NCc2cc(-c3ccc(C(F)(F)F)cc3)nc(N3CCN(c4ccccc4F)CC3)n2)c(C)c1` [Example 275, 1-(2,4,6-Trimethyl-benzenesulfonyl)-pyrrolidine-2-carboxylic acid [2-[4-(2-fluoro-phenyl)-piperazin-1-yl]-6-(4-trifluoromethyl-phenyl)-pyrimidin-4-ylmethyl]-amide], the IC50 is reported as > 10 µM. `O=C(NCc1cc(-c2ccc(C(F)(F)F)cc2)nc(N2CCN(c3ccccc3F)CC2)n1)[C@@H]1CCCN1S(=O)(=O)c1ccccc1F` [Example 276, 1-(2-Fluoro-benzenesulfonyl)-pyrrolidine-2S-carboxylic acid [2-[4-(2-fluoro-phenyl)-piperazin-1-yl]-6-(4-trifluoromethyl-phenyl)-pyrimidin-4-ylmethyl]-amide] was tested, and the IC50 was 6.17 µM. In the case of `Cc1cccc(Cl)c1S(=O)(=O)N1CCC[C@H]1C(=O)NCc1cc(-c2ccc(C(F)(F)F)cc2)nc(N2CCN(c3ccccc3F)CC2)n1` [Example 277, 1-(2-Chloro-6-methyl-benzenesulfonyl)-pyrrolidine-2S-carboxylic acid [2-[4-(2-fluoro-phenyl)-piperazin-1-yl]-6-(4-trifluoromethyl-phenyl)-pyrimidin-4-ylmethyl]-amide], the IC50 is reported as > 10 µM. `O=C(NCc1cc(-c2ccc(C(F)(F)F)cc2)nc(N2CCN(c3ccccc3F)CC2)n1)[C@@H]1CCCN1S(=O)(=O)c1ccc(Cl)cc1F` [Example 278, 1-(4-Chloro-2-fluoro-benzenesulfonyl)-pyrrolidine-2S-carboxylic acid [2-[4-(2-fluoro-phenyl)-piperazin-1-yl]-6-(4-trifluoromethyl-phenyl)-pyrimidin-4-ylmethyl]-amide] was tested, and the IC50 was > 10 µM. `Cc1ccccc1S(=O)(=O)N1CCC[C@H]1C(=O)NCc1cc(-c2ccc(C(F)(F)F)cc2)nc(N2CCN(c3ccccc3F)CC2)n1` [Example 279, 1-(Toluene-2-sulfonyl)-pyrrolidine-2S-carboxylic acid [2-[4-(2-fluoro-phenyl)-piperazin-1-yl]-6-(4-trifluoromethyl-phenyl)-pyrimidin-4-ylmethyl]-amide] was tested, and the IC50 was > 10 µM. With `Cc1ccc(S(=O)(=O)N2CCC[C@H]2C(=O)NCc2cc(-c3ccc(C(F)(F)F)cc3)nc(N3CCN(c4ccccc4F)CC3)n2)cc1Cl` [Example 280, 1-(3-Chloro-4-methyl-benzenesulfonyl)-pyrrolidine-2S-carboxylic acid [2-[4-(2-fluoro-phenyl)-piperazin-1-yl]-6-(4-trifluoromethyl-phenyl)-pyrimidin-4-ylmethyl]-amide] the IC50 was > 10 µM. With `O=C(NCc1cc(-c2ccc(C(F)(F)F)cc2)nc(N2CCN(c3ccccc3F)CC2)n1)[C@@H]1CCCN1S(=O)(=O)c1cc(F)cc(F)c1` [Example 281, 1-(3,5-Difluoro-benzenesulfonyl)-pyrrolidine-2S-carboxylic acid [2-[4-(2-fluoro-phenyl)-piperazin-1-yl]-6-(4-trifluoromethyl-phenyl)-pyrimidin-4-ylmethyl]-amide] the IC50 was 5.49 µM. For `CC(C)(C)c1ccc(S(=O)(=O)N2CCC[C@H]2C(=O)NCc2cc(-c3ccc(C(F)(F)F)cc3)nc(N3CCN(c4ccccc4F)CC3)n2)cc1` [Example 282, 1-(4-tert-Butyl-benzenesulfonyl)-pyrrolidine-2S-carboxylic acid [2-[4-(2-fluoro-phenyl)-piperazin-1-yl]-6-(4-trifluoromethyl-phenyl)-pyrimidin-4-ylmethyl]-amide], the IC50 was > 10 µM. In the case of `O=C(NCc1cccc(-c2ccc(C(F)(F)F)cc2)n1)[C@@H]1CCCN1S(=O)(=O)c1ccc(F)cc1` [Example 283, 1-(4-Fluoro-benzenesulfonyl)-pyrrolidine-2S-carboxylic acid [6-(4-trifluoromethyl-phenyl)-pyridin-2-ylmethyl]-amide], the IC50 is reported as ~0.724 µM. For `O=C(NCc1cccc(-c2ccc(C(F)(F)F)cc2)n1)[C@@H]1CCCN1S(=O)(=O)c1ccc(Cl)s1` [Example 284, 1-(5-Chloro-thiophene-2-sulfonyl)-pyrrolidine-2S-carboxylic acid [6-(4-trifluoromethyl-phenyl)-pyridin-2-ylmethyl]-amide], the IC50 was ~1.07 µM. `O=C(NCc1cc(-c2ccc(C(F)(F)F)cc2)nc(-c2ccc(C(F)(F)F)cc2)n1)[C@@H]1CCCN1S(=O)(=O)c1ccc(F)cc1` [Example 285, 1-(4-Fluoro-benzenesulfonyl)-pyrrolidine-2S-carboxylic acid [2,6-bis-(4-trifluoromethyl-phenyl)-pyrimidin-4-ylmethyl]-amide] showed an IC50 of 0.022 µM. For `O=C(NCc1cc(-c2ccc(C(F)(F)F)cc2)nc(N2CCN(c3ccccc3F)CC2)n1)[C@@H]1CCCN1S(=O)(=O)c1ccc(F)cc1` [Example 286, 1-(4-Fluoro-benzenesulfonyl)-pyrrolidine-2S-carboxylic acid [2-[4-(2-fluoro-phenyl)-piperazin-1-yl]-6-(4-trifluoromethyl-phenyl)-pyrimidin-4-ylmethyl]-amide], the IC50 was ~0.158 µM. Molecule `COc1ccc(Nc2nc(CNC(=O)[C@@H]3CCCN3S(=O)(=O)c3ccc(F)cc3)cc(-c3ccc4c(c3)OCO4)n2)cc1` [Example 287, 1-(4-Fluoro-benzenesulfonyl)-pyrrolidine-2S-carboxylic acid [6-benzo[1,3]dioxol-5-yl-2-(4-methoxy-phenylamino)-pyrimidin-4-ylmethyl]-amide] has an IC50 of 3.72 µM. In the case of `CN1CCN(C(=O)c2ccc(Nc3nc(CNC(=O)[C@@H]4CCCN4S(=O)(=O)c4ccc(F)cc4)cc(-c4ccc5c(c4)OCO5)n3)cc2)CC1` [Example 288, 1-(4-Fluoro-benzenesulfonyl)-pyrrolidine-2S-carboxylic acid {6-benzo[1,3]dioxol-5-yl-2-[4-(4-methyl-piperazine-1-carbonyl)-phenylamino]-pyrimidin-4-ylmethyl}-amide], the IC50 is reported as > 10 µM. For `CC(C)CN(CCO)c1nc(CNC(=O)[C@@H]2CCCN2S(=O)(=O)c2ccc(F)cc2)cc(-c2ccc(Br)cc2)n1` [Example 289, 1-(4-Fluoro-benzenesulfonyl)-pyrrolidine-2S-carboxylic acid {6-(4-bromo-phenyl)-2-[(2-hydroxy-ethyl)-isobutyl-amino]-pyrimidin-4-ylmethyl}-amide], the IC50 was ~3.47 µM. For `O=C(NCc1cc(-c2ccc(Br)cc2)nc(NC2CC2)n1)[C@@H]1CCCN1S(=O)(=O)c1ccc(F)cc1` [Example 290, 1-(4-Fluoro-benzenesulfonyl)-pyrrolidine-2S-carboxylic acid [6-(4-bromo-phenyl)-2-cyclopropylamino-pyrimidin-4-ylmethyl]-amide], the IC50 was ~0.708 µM. `C#CCNc1nc(CNC(=O)[C@@H]2CCCN2S(=O)(=O)c2ccc(F)cc2)cc(-c2ccc(C(F)(F)F)cc2)n1` [Example 291] showed an IC50 of ~0.407 µM. In the case of `O=C(NCc1cc(-c2ccc3c(c2)OCO3)nc(NCCc2ccc(Cl)cc2Cl)n1)[C@@H]1CCCN1S(=O)(=O)c1ccc(F)cc1` [Example 292, 1-(4-Fluoro-benzenesulfonyl)-pyrrolidine-2S-carboxylic acid {6-benzo[1,3]dioxol-5-yl-2-[2-(2,4-dichloro-phenyl)-ethylamino]-pyrimidin-4-ylmethyl}-amide], the IC50 is reported as > 10 µM. In the case of `O=C(NCc1cc(-c2ccc(Br)cc2)nc(NCCO)n1)[C@@H]1CCCN1S(=O)(=O)c1ccc(F)cc1` [Example 293, 1-(4-Fluoro-benzenesulfonyl)-pyrrolidine-2S-carboxylic acid [6-(4-bromo-phenyl)-2-(2-hydroxy-ethylamino)-pyrimidin-4-ylmethyl]-amide], the IC50 is reported as 2.69 µM. With `O=C(NCc1cc(-c2ccc(C(F)(F)F)cc2)nc(NCc2cccnc2)n1)[C@@H]1CCCN1S(=O)(=O)c1ccc(F)cc1` [Example 294, 1-(4-Fluoro-benzenesulfonyl)-pyrrolidine-2S-carboxylic acid [2-[(pyridin-3-ylmethyl)-amino]-6-(4-trifluoromethyl-phenyl)-pyrimidin-4-ylmethyl]-amide] the IC50 was ~1 µM. Molecule `O=C(NCc1cc(-c2ccc(Br)cc2)nc(NCCc2ccccn2)n1)[C@@H]1CCCN1S(=O)(=O)c1ccc(F)cc1` [Example 295, 1-(4-Fluoro-benzenesulfonyl)-pyrrolidine-2S-carboxylic acid [6-(4-bromo-phenyl)-2-(2-pyridin-2-yl-ethylamino)-pyrimidin-4-ylmethyl]-amide] has an IC50 of 1.74 µM. `CC1CCN(c2nc(CNC(=O)[C@@H]3CCCN3S(=O)(=O)c3ccc(F)cc3)cc(-c3ccc(Br)cc3)n2)CC1` [Example 296, 1-(4-Fluoro-benzenesulfonyl)-pyrrolidine-2S-carboxylic acid [6-(4-bromo-phenyl)-2-(4-methyl-piperidin-1-yl)-pyrimidin-4-ylmethyl]-amide] gave an IC50 of 4.47 µM. Work on `O=C(NCc1cc(-c2ccc(C(F)(F)F)cc2)nc(N2CCN(Cc3ccc4c(c3)OCO4)CC2)n1)[C@@H]1CCCN1S(=O)(=O)c1ccc(F)cc1` [Example 297, 1-(4-Fluoro-benzenesulfonyl)-pyrrolidine-2S-carboxylic acid [2-(4-benzo[1,3]dioxol-5-ylmethyl-piperazin-1-yl)-6-(4-trifluoromethyl-phenyl)-pyrimidin-4-ylmethyl]-amide] yielded an IC50 of 0.355 µM.
